According to patent US9115101B2 (Genentech, Inc., priority 2012, dated 2015):

Molecular target: T1, RORc ligand binding domain (Homo sapiens, UniProt P51449)
T1 construct: host or cells: E. coli
T1 sequence (P51449 269-508 limits assumed): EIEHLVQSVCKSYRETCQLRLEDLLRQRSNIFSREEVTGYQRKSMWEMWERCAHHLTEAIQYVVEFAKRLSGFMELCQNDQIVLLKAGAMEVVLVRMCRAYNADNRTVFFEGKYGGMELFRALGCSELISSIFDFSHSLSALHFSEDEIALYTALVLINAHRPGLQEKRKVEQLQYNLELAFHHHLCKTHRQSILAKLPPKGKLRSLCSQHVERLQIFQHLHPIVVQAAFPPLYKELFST
Experiment: In Vitro RORc Ligand Binding Assay (25-[3H]hydroxycholesterol radioligand filtration)
Conditions: In Vitro RORc Ligand Binding Assay; Table 4; read-out: RORc IC50

Row | SMILES | IC50
1 | CC(=O)N1CCN(c2ccc(CN3CCCC(c4ccccc4)S3(=O)=O)c(F)c2)CC1 (stereo not shown) [Example 10, 1-{4-[4-(1,1-Dioxo-6-phenyl-[1,2]thiazinan-2-ylmethyl)-3-fluoro-phenyl]-piperazin-1-yl}-ethanone] | 149 nM
2 | CC(=O)N1CCN(c2ccc(CN3CCOCC(c4ccccc4)S3(=O)=O)c(F)c2)CC1 (stereo not shown) [Example 21, 1-{4-[4-(4,4-Dioxo-3-phenyl-[1,4,5]oxathiazepan-5-ylmethyl)-3-fluoro-phenyl]-piperazin-1-yl}-ethanone] | 209 nM
3 | CC(=O)N1CCN(c2ccc(CN3[C@@H](C)CCC(c4ccccc4)S3(=O)=O)nc2)CC1 (stereo partly drawn) [Example 67, 1-{4-[6-((3S)-3-Methyl-1,1-dioxo-6-phenyl-[1,2]thiazinan-2-ylmethyl)-pyridin-3-yl]-piperazin-1-yl}-ethanone] | 1540 nM
4 | C[C@H]1CCC(c2ccccc2)S(=O)(=O)N1Cc1ccc(N2CCC(C(=O)O)CC2)cc1F (stereo partly drawn) [Example 120, 1-[3-Fluoro-4-((3S)-3-methyl-1,1-dioxo-6-phenyl-[1,2]thiazinan-2-ylmethyl)-phenyl]-piperidine-4-carboxylic acid] | 102 nM
5 | C[C@H]1CCC(c2ccccc2)S(=O)(=O)N1Cc1ccc(N2CCN(C3=CC(=O)CC3)CC2)cc1F (stereo partly drawn) [Example 123, 3-{4-[3-Fluoro-4-((3S)-3-methyl-1,1-dioxo-6-phenyl-[1,2]thiazinan-2-ylmethyl)-phenyl]-piperazin-1-yl}-cyclopent-2-enone] | 89 nM
6 | CN/C(=C\[N+](=O)[O-])N1CCN(c2ccc(CN3[C@@H](C)CCC(c4ccccc4)S3(=O)=O)c(F)c2)CC1 (stereo partly drawn) [Example 126, ((E)-1-{4-[3-Fluoro-4-((3S)-3-methyl-1,1-dioxo-6-phenyl-[1,2]thiazinan-2-ylmethyl)-phenyl]-piperazin-1-yl}-2-nitro-vinyl)-methyl-amine] | 258 nM
7 | CC(=O)N1CCN(c2ccc(CN3[C@@H](C)CCC(c4ccccc4)S3(=O)=O)c(Cl)c2)CC1 (stereo partly drawn) [Example 180, 1-{4-[3-Chloro-4-((3S)-3-methyl-1,1-dioxo-6-phenyl-[1,2]thiazinan-2-ylmethyl)-phenyl]-piperazin-1-yl}-ethanone] | 1580 nM
8 | CC1CC(=O)C=C(N2CCN(c3ccc(CN4[C@@H](C)CCC(c5ccccc5)S4(=O)=O)c(F)c3)CC2)C1 (stereo partly drawn) [Example 186, 3-{4-[3-Fluoro-4-((3S)-3-methyl-1,1-dioxo-6-phenyl-[1,2]thiazinan-2-ylmethyl)-phenyl]-piperazin-1-yl}-5-methyl-cyclohex-2-enone] | 179 nM
9 | C[C@H]1CCC(c2ccccc2)S(=O)(=O)N1Cc1ccc(N2CCN(C3=CC(=O)CC(C)(C)C3)CC2)cc1F (stereo partly drawn) [Example 187, 3-{4-[3-Fluoro-4-((3S)-3-methyl-1,1-dioxo-6-phenyl-[1,2]thiazinan-2-ylmethyl)-phenyl]-piperazin-1-yl}-5,5-dimethyl-cyclohex-2-enone] | 647 nM
10 | C[C@H]1CCC(c2ccccc2)S(=O)(=O)N1Cc1ccc(N2CCN(C3=CC(=O)CCC3)CC2)cc1F (stereo partly drawn) [Example 188, 3-{4-[3-Fluoro-4-((3S)-3-methyl-1,1-dioxo-6-phenyl-[1,2]thiazinan-2-ylmethyl)-phenyl]-piperazin-1-yl}-cyclohex-2-enone] | 108 nM
11 | C[C@H]1CCC(c2ccccc2)S(=O)(=O)N1Cc1ccc(N2CCC(n3cccn3)CC2)cc1F (stereo partly drawn) [Example 209, (3S)-2-[2-Fluoro-4-(4-pyrazol-1-yl-piperidin-1-yl)-benzyl]-3-methyl-6-phenyl-[1,2]thiazinane 1,1-dioxide] | 121 nM
12 | C[C@@H]1CC(c2ccccc2)S(=O)(=O)N(Cc2ccc(N3CCN(C(=O)CC#N)CC3)cc2F)C1 (stereo partly drawn) [Example 230, 3-{4-[3-Fluoro-4-((4R)-methyl-1,1-dioxo-6-phenyl-[1,2]thiazinan-2-ylmethyl)-phenyl]-piperazin-1-yl}-3-oxo-propionitrile] | 93 nM
13 | C[C@H]1CCC(c2ccccc2)S(=O)(=O)N1Cc1ccc(N[C@H]2CC[C@H](n3cnnc3)CC2)cc1F (stereo partly drawn) [Example 232, [3-Fluoro-4-((3S)-methyl-1,1-dioxo-6-phenyl-[1,2]thiazinan-2-ylmethyl)-phenyl]-(4-[1,2,4]triazol-4-yl-cyclohexyl)-amine] | 275 nM
14 | C[C@H]1CCC(c2ccccc2)S(=O)(=O)N1Cc1ccc(N[C@H]2C[C@H](n3cnnc3)C2)cc1F (stereo partly drawn) [Example 234, [3-Fluoro-4-((3S)-methyl-1,1-dioxo-6-phenyl-[1,2]thiazinan-2-ylmethyl)-phenyl]-(3-[1,2,4]triazol-4-yl-cyclobutyl)-amine] | 132 nM

Now those with a lower IC50, led by results:

Row | IC50 | SMILES
15 | 20 nM | C[C@@H]1CCC(c2ccccc2)S(=O)(=O)N1Cc1ccc(OC2CCN(S(C)(=O)=O)CC2)cc1 (stereo partly drawn) [Example 52, (3R)-3-Methyl-2-(4-((1-(methylsulfonyl)piperidin-4-yl)oxy)benzyl)-6-phenyl-1,2-thiazinane 1,1-dioxide]
16 | 6 nM | C[C@@H]1CCC(c2ccccc2)S(=O)(=O)N1Cc1ccc(OC2CCN(S(C)(=O)=O)CC2)cc1F (stereo partly drawn) [Example 53, 2-(2-fluoro-4-((1-(methylsulfonyl)piperidin-4-yl)oxy)benzyl)-(3R)-3-methyl-6-phenyl-1,2-thiazinane 1,1-dioxide]
17 | 18 nM | C[C@H]1CCC(c2ccccc2)S(=O)(=O)N1Cc1ccc(NC2CCC(C#N)CC2)cc1F (stereo partly drawn) [Example 101, 4-[3-Fluoro-4-((3S)-3-methyl-1,1-dioxo-6-phenyl-[1,2]thiazinan-2-ylmethyl)-phenylamino]-cyclohexanecarbo-nitrile]
18 | 73 nM | C[C@H]1CCC(c2ccccc2)S(=O)(=O)N1Cc1ccc(N2CCN(C=O)CC2)cc1F (stereo partly drawn) [Example 115, 4-[3-Fluoro-4-((3S)-3-methyl-1,1-dioxo-6-phenyl-[1,2]thiazinan-2-ylmethyl)-phenyl]-piperazine-1-carbaldehyde]
19 | 10 nM | CN/C(=N\C#N)N1CCN(c2ccc(CN3[C@@H](C)CCC(c4ccccc4)S3(=O)=O)c(F)c2)CC1 (stereo partly drawn) [Example 124, 1-(4-{3-Fluoro-4-[(3S)-6-phenyl-3-methyl-1,1-dioxo-[1,2]thiazinan-2-ylmethyl]-phenyl}-piperazin-1-yl)-(Z)-N′-cyano-N-methylacetimid-amide]
20 | 18 nM | C[C@H]1CCC(c2ccccc2)S(=O)(=O)N1Cc1ccc(N2CCC(C(=O)NC#N)CC2)cc1F (stereo partly shown) [Example 125]
21 | 59 nM | CC1=C(N2CCN(c3ccc(CN4[C@@H](C)CCC(c5ccccc5)S4(=O)=O)c(F)c3)CC2)CCC1=O (stereo partly drawn) [Example 189, 3-{4-[3-Fluoro-4-((3S)-3-methyl-1,1-dioxo-6-phenyl-[1,2]thiazinan-2-ylmethyl)-phenyl]-piperazin-1-yl}-2-methyl-cyclopent-2-enone]
22 | 38 nM | C[C@H]1CCC(c2ccccc2)S(=O)(=O)N1Cc1ccc(N2CCC(c3nnco3)CC2)cc1F (stereo partly drawn) [Example 210, (3S)-2-[2-Fluoro-4-(4-[1,3,4]oxadiazol-2-yl-piperidin-1-yl)-benzyl]-3-methyl-6-phenyl-[1,2]thiazinane 1,1-dioxide]
23 | 30 nM | C[C@H]1CCC(c2ccccc2)S(=O)(=O)N1Cc1ccc(N2CCC(n3cncn3)CC2)cc1F (stereo partly drawn) [Example 215, (3S)-2-[2-Fluoro-4-(4-[1,2,4]triazol-1-yl-piperidin-1-yl)-benzyl]-3-methyl-6-phenyl-[1,2]thiazinane 1,1-dioxide]
24 | 9 nM | C[C@H]1CCC(c2ccccc2)S(=O)(=O)N1Cc1ccc(NC2CCN(S(C)(=O)=O)CC2)cc1 (stereo partly drawn) [Example 216, (1-Methanesulfonyl-piperidin-4-yl)-[4-((3S)-3-methyl-1,1-dioxo-6-phenyl-[1,2]thiazinan-2-ylmethyl)-phenyl]-amine]
25 | 11 nM | C[C@H]1CCC(c2ccccc2)S(=O)(=O)N1Cc1ccc(N2CCC(n3ccnc3)CC2)cc1F (stereo partly drawn) [Example 217, (3S)-2-[2-Fluoro-4-(4-imidazol-1-yl-piperidin-1-yl)-benzyl]-3-methyl-6-phenyl-[1,2]thiazinane 1,1-dioxide]
26 | 3 nM | C[C@@H]1CC(c2ccccc2)S(=O)(=O)N(Cc2ccc(NC3CCN(S(C)(=O)=O)CC3)cc2F)C1 (stereo partly drawn) [Example 227, [3-Fluoro-4-((4R)-methyl-1,1-dioxo-6-phenyl-[1,2]thiazinan-2-ylmethyl)-phenyl]-(1-methanesulfonyl-piperidin-4-yl)-amine]
27 | 73 nM | C[C@H]1CCC(c2ccccc2)S(=O)(=O)N1Cc1ccc(N[C@H]2CC[C@@H](n3cnnc3)CC2)cc1F (stereo partly drawn) [Example 231, [3-Fluoro-4-((3S)-methyl-1,1-dioxo-6-phenyl-[1,2]thiazinan-2-ylmethyl)-phenyl]-(4-[1,2,4]triazol-4-yl-cyclohexyl)-amine]
28 | 39 nM | C[C@H]1CCC(c2ccccc2)S(=O)(=O)N1Cc1ccc(N2CCC(/C(N)=N/O)CC2)cc1F (stereo partly drawn) [Example 233, 1-[3-Fluoro-4-((3S)-methyl-1,1-dioxo-6-phenyl-[1,2]thiazinan-2-ylmethyl)-phenyl]-N-hydroxy-piperidine-4-carboxamidine]
29 | 40 nM | C[C@H]1CCC(c2ccccc2)S(=O)(=O)N1Cc1ccc(N2CCC(c3ncon3)CC2)cc1F (stereo partly drawn) [Example 235, 2-[2-Fluoro-4-(4-[1,2,4]oxadiazol-3-yl-piperidin-1-yl)-benzyl]-(3S)-methyl-6-phenyl-[1,2]thiazinane 1,1-dioxide]
30 | 6 nM | C[C@H]1CCC(c2ccccc2)S(=O)(=O)N1Cc1ccc(NC2CCN(S(C)(=O)=O)CC2)c(F)c1 (stereo partly drawn) [Example 236, [2-Fluoro-4-((3S)-methyl-1,1-dioxo-6-phenyl-[1,2]thiazinan-2-ylmethyl)-phenyl]-(1-methanesulfonyl-piperidin-4-yl)-amine]
31 | 6 nM | CC(=O)N1CCN(c2ccc(CN3[C@@H](C)CCC(c4ccccc4)S3(=O)=O)c(F)c2)[C@@H](C)C1 (stereo partly drawn) [Example 237, 1-{4-[3-Fluoro-4-((3S)-methyl-1,1-dioxo-6-phenyl-[1,2]thiazinan-2-ylmethyl)-phenyl]-3-methyl-piperazin-1-yl}-ethanone]
